From ChEMBL document CHEMBL3991601, “The target landscape of clinical kinase drugs” (Science, 2017)
pKd: −log10 of the molar value. Calls of active or inactive are those of the source. Rule as the data show it, for most assays here: actives have a measured Kd and inactives only a lower limit.

Columns and labels:
[1] = target: T1, Mitogen-activated protein kinase kinase kinase 2 (Homo sapiens, UniProt Q9Y2U5)
T1 sequence (Q9Y2U5 whole entry): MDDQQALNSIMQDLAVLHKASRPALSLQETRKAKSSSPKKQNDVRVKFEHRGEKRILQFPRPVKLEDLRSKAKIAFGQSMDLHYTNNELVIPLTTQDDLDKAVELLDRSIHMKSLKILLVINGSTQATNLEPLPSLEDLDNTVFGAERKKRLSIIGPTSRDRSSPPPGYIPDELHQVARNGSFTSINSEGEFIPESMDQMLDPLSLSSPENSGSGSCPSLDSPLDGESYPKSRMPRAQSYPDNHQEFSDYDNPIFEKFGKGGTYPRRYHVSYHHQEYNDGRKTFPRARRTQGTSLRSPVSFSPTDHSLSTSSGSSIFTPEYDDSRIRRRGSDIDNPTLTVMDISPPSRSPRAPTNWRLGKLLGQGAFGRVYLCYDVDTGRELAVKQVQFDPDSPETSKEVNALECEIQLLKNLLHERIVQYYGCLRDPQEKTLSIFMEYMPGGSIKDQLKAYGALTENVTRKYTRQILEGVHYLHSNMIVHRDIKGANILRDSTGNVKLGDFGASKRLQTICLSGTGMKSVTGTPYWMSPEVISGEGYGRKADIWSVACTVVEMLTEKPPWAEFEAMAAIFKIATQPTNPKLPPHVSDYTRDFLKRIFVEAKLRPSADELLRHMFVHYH

[2] = target: T2, Structural maintenance of chromosomes protein 1A (Homo sapiens, UniProt Q14683)
T2 sequence (Q14683 whole entry): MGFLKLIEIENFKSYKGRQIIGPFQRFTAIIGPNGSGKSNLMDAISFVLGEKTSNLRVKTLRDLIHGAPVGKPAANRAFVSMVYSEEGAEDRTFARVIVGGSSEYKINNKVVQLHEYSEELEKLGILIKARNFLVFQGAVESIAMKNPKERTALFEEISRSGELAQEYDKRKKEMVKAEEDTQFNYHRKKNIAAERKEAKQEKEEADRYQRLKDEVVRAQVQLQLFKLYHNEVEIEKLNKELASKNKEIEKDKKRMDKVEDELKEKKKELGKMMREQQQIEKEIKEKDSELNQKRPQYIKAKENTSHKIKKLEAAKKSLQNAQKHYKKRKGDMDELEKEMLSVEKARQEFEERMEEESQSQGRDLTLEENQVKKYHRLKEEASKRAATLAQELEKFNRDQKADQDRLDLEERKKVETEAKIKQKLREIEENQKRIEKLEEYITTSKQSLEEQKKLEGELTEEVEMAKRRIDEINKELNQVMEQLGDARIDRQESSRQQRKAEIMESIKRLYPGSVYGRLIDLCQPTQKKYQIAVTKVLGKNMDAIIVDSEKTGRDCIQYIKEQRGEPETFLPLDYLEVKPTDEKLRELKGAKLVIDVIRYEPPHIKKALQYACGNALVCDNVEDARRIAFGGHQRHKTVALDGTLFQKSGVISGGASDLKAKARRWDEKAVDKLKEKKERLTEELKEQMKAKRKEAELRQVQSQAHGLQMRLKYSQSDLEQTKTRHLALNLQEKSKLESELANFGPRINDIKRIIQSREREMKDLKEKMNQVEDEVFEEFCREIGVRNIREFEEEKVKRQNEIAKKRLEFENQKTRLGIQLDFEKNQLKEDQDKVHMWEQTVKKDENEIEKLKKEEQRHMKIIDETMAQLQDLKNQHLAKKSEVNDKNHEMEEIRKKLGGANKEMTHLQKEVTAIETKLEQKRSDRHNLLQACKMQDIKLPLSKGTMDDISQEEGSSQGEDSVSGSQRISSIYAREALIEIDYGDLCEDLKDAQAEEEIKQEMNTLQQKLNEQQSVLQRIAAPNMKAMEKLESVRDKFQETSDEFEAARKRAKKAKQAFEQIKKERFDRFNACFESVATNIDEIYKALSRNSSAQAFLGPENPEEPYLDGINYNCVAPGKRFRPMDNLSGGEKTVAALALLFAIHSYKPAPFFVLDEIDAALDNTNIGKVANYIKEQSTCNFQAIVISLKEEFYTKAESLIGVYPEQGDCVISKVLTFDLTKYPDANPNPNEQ

[3] = target: Serine/threonine-protein kinase 26 (Homo sapiens, UniProt Q9P289)
[4] = target: T3, Mitogen-activated protein kinase kinase kinase kinase 3 (Homo sapiens, UniProt Q8IVH8)
T3 sequence (Q8IVH8 whole entry): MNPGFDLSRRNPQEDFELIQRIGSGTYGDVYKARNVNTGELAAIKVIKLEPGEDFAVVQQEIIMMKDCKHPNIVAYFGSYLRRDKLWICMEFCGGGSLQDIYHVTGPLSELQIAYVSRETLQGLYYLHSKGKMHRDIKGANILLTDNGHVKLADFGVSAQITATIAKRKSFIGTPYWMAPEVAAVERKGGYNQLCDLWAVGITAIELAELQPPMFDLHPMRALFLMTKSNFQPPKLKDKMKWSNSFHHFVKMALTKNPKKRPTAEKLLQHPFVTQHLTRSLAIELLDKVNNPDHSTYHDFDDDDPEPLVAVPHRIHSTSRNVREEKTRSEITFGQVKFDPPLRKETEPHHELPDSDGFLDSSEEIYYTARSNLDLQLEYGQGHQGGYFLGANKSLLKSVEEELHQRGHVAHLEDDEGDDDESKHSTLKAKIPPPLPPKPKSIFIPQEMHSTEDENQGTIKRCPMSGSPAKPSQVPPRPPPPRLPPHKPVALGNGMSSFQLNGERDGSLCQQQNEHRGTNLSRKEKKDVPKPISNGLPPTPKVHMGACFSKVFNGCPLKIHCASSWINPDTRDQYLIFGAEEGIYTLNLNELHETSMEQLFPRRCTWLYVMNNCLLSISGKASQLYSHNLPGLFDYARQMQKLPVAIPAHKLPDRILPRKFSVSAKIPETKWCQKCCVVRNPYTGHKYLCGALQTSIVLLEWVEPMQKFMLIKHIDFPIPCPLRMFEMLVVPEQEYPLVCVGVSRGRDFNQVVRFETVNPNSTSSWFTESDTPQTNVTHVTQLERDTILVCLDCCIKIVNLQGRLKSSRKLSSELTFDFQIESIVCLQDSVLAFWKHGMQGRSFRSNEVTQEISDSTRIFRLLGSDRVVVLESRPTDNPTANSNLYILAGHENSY

[5] = target: Cyclin-dependent kinase 1 (Homo sapiens, UniProt P06493)
[6] = target: MAP/microtubule affinity-regulating kinase 3 (Homo sapiens, UniProt P27448)
Also: in the data inactive means no Kd found up to 30 µM.

Chain of Cyclin-dependent kinase 1 (P06493 whole entry): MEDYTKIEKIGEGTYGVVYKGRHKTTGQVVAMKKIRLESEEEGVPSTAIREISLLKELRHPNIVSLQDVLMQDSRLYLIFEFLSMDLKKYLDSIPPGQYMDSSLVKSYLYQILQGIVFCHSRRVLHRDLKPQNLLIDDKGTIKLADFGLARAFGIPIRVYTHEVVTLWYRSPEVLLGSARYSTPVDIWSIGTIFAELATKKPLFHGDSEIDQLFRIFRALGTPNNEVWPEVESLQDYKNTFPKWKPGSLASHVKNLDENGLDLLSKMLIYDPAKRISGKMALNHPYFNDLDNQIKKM
Chain of Serine/threonine-protein kinase 26 (Q9P289 whole entry): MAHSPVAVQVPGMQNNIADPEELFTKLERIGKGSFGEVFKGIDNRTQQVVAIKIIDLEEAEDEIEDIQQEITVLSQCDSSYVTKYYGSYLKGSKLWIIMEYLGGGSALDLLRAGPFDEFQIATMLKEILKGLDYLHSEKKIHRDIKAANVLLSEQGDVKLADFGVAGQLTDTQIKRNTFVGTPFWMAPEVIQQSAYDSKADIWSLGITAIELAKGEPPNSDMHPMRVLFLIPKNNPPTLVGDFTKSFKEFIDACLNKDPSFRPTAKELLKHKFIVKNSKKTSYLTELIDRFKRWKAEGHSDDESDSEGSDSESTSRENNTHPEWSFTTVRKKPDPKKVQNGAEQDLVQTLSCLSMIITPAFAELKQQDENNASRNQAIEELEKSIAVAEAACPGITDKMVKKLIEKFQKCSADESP
Chain of MAP/microtubule affinity-regulating kinase 3 (P27448 whole entry): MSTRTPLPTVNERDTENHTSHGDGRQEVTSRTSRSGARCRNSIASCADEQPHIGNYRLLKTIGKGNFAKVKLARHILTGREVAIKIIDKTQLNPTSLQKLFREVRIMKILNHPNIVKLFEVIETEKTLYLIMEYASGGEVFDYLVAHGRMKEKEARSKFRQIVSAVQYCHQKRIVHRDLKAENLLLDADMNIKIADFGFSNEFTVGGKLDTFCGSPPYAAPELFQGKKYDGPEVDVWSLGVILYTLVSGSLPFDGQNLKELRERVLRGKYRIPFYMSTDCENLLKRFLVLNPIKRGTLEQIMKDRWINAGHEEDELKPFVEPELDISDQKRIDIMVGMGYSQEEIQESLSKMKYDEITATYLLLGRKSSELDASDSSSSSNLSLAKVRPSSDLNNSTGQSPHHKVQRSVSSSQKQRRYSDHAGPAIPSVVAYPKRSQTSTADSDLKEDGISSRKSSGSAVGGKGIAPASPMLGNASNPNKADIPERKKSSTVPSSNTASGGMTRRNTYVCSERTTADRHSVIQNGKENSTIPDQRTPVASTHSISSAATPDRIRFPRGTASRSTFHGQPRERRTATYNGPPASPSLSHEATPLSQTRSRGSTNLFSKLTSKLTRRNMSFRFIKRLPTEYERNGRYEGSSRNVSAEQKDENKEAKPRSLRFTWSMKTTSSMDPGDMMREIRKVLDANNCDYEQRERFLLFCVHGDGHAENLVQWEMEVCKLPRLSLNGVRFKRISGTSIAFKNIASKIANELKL

| Structure (SMILES) | Kd [1] | Kd [2] | Kd [3] | Kd [4] | Kd [5] | Kd [6] | pKd [5] |
| --- | --- | --- | --- | --- | --- | --- | --- |
| NC[C@@](O)(c1ccc(Cl)cc1)c1ccc(-c2cn[nH]c2)cc1 [AT-13148] | > 30 µM (inactive) | > 30 µM (inactive) | > 30 µM (inactive) | > 30 µM (inactive) | > 30 µM (inactive) | > 30 µM (inactive) |  |
| Cn1c(=O)c(F)c(Nc2ccc(I)cc2F)c2c(=O)n(C[C@@H](O)CO)cnc21 [TAK-733] | > 30 µM (inactive) | > 30 µM (inactive) | > 30 µM (inactive) | > 30 µM (inactive) | > 30 µM (inactive) | > 30 µM (inactive) |  |
| COc1cccc(Nc2ncnn3ccc(CN4CC[C@@H](N)[C@H](O)C4)c23)c1 [BMS-690514] | 1.05 µM (active) | > 30 µM (inactive) | > 30 µM (inactive) | > 30 µM (inactive) | > 30 µM (inactive) | 1.7 µM (active) |  |
| Cc1ccc(C(=O)Nc2ccc(Oc3cc4cnn(C)c4cc3-c3cn[nH]c3)c(F)c2)c(=O)n1-c1ccc(F)cc1 [MERESTINIB] | > 30 µM (inactive) | > 30 µM (inactive) | > 30 µM (inactive) | > 30 µM (inactive) | > 30 µM (inactive) | > 30 µM (inactive) |  |
| Cn1cc(-c2[nH]c3cc(NC(=O)[C@H](N)C4CCCCC4)cc4c3c2C=NNC4=O)cn1 | > 30 µM (inactive) | > 30 µM (inactive) | > 30 µM (inactive) | 1.54 µM (active) | > 30 µM (inactive) | 0.387 µM (active) |  |
| C=CC(=O)Nc1cc(Nc2nccc(-c3cn(C)c4ccccc34)n2)c(OC)cc1N(C)CCN(C)C [OSIMERTINIB] | > 30 µM (inactive) | > 30 µM (inactive) | > 30 µM (inactive) | > 30 µM (inactive) | > 30 µM (inactive) | > 30 µM (inactive) |  |
| COc1cccc2cc(-c3nc([C@H]4CC[C@H](C(=O)O)CC4)n4ncnc(N)c34)[nH]c12 [OSI-027] | > 30 µM (inactive) | > 30 µM (inactive) | > 30 µM (inactive) | > 30 µM (inactive) | > 30 µM (inactive) | > 30 µM (inactive) |  |
| CNC(=O)c1ccc(Nc2ncc(C(F)(F)F)c(NCc3nccnc3N(C)S(C)(=O)=O)n2)cc1 [DEFACTINIB] | > 30 µM (inactive) | > 30 µM (inactive) | > 30 µM (inactive) | > 30 µM (inactive) |  | 4.49 µM (active) | 5.70 |
| NC(=O)c1ccc(N(C(N)=O)c2c(F)cccc2F)nc1-c1ccc(F)cc1F [VX-702] | > 30 µM (inactive) | > 30 µM (inactive) | > 30 µM (inactive) | > 30 µM (inactive) | > 30 µM (inactive) | > 30 µM (inactive) |  |

Now from value to compound, other results behind:

| Kd [1] | Kd [2] | Kd [3] | Kd [4] | Kd [5] | Kd [6] | Structure (SMILES) | pKd [5] |
| --- | --- | --- | --- | --- | --- | --- | --- |
| > 30 µM (inactive) | > 30 µM (inactive) | > 30 µM (inactive) | > 30 µM (inactive) | > 30 µM (inactive) | > 30 µM (inactive) | COc1cc2ncnc3c2cc1OCCCCCN(C)Cc1ccc(Br)cc1N3 [JNJ-26483327] |  |
| > 30 µM (inactive) | > 30 µM (inactive) | > 30 µM (inactive) | > 30 µM (inactive) | > 30 µM (inactive) | > 30 µM (inactive) | COc1cc2nccc(Oc3ccc(NC(=O)C4(C(=O)Nc5ccc(F)cc5)CC4)cc3)c2cc1OC [CABOZANTINIB] |  |
| > 30 µM (inactive) | > 30 µM (inactive) | > 30 µM (inactive) | > 30 µM (inactive) | > 30 µM (inactive) | > 30 µM (inactive) | COc1cc2ncnc(Nc3ccc(O)cc3)c2cc1OC [WHI-P131] |  |
| > 30 µM (inactive) | > 30 µM (inactive) | > 30 µM (inactive) | > 30 µM (inactive) | > 30 µM (inactive) | > 30 µM (inactive) | O[C@H]1CC[C@H](Nc2ncc3nc(Nc4c(F)cc(F)cc4F)n([C@H]4CCOC4)c3n2)CC1 [TANZISERTIB] |  |
| > 30 µM (inactive) | > 30 µM (inactive) | > 30 µM (inactive) | > 30 µM (inactive) | > 30 µM (inactive) | > 30 µM (inactive) | CCOc1ccn(-c2ccc(F)cc2)c(=O)c1C(=O)Nc1ccc(Oc2ccnc(N)c2Cl)c(F)c1 [BMS-777607] |  |
| > 30 µM (inactive) | > 30 µM (inactive) | > 30 µM (inactive) | > 30 µM (inactive) | > 30 µM (inactive) | > 30 µM (inactive) | Cc1cc(-c2cc(OC(=O)c3ccccc3)ccc2Cl)cc2nnc(Nc3ccc(OCCN4CCCC4)cc3)nc12 [TG100-801] |  |
| > 30 µM (inactive) | > 30 µM (inactive) | > 30 µM (inactive) | > 30 µM (inactive) | > 30 µM (inactive) | > 30 µM (inactive) | Cc1cc(C(=O)Nc2cc(Oc3ccc4nc(NC(=O)C5CC5)cn4n3)ccc2C)n(C)n1 [TAK-593] |  |
